Results on six molecules are retold here after ChEMBL document CHEMBL1139514, “Methyl substitution of 2-aminobicyclo[3.1.0]hexane 2,6-dicarboxylate (LY354740) determines functional activity at metabotropic glutamate receptors: identification of a subtype selective mGlu2 receptor agonist” (J Med Chem, 2005).

Where only a bound is given, the exact number is not on record here.

Assay [1] concerns the target T1, Metabotropic glutamate receptor 2 (Homo sapiens, UniProt Q14416). As to the kind of experiment: Evaluation of the functional effect on cAMP responses in RGT cells expressing human mGlu2 receptor. The assay is classed as cell-based.
Assay [2] has as its target T2, Metabotropic glutamate receptor 3 (Homo sapiens, UniProt Q14832). As to the kind of experiment: Displacement of [3H]-341495 binding to membranes expressing recombinant human Metabotropic glutamate receptor 3.
For assay [3], the target named is T1, Metabotropic glutamate receptor 2. As to the kind of experiment: Displacement of [3H]-341495 binding to membranes expressing recombinant human Metabotropic glutamate receptor 2.
The target in assay [4] is T2, Metabotropic glutamate receptor 3. Description: Evaluation of the functional effect on cAMP responses in RGT cells expressing human mGlu3 receptor. The assay is classed as cell-based.

T1 sequence (Q14416 whole entry): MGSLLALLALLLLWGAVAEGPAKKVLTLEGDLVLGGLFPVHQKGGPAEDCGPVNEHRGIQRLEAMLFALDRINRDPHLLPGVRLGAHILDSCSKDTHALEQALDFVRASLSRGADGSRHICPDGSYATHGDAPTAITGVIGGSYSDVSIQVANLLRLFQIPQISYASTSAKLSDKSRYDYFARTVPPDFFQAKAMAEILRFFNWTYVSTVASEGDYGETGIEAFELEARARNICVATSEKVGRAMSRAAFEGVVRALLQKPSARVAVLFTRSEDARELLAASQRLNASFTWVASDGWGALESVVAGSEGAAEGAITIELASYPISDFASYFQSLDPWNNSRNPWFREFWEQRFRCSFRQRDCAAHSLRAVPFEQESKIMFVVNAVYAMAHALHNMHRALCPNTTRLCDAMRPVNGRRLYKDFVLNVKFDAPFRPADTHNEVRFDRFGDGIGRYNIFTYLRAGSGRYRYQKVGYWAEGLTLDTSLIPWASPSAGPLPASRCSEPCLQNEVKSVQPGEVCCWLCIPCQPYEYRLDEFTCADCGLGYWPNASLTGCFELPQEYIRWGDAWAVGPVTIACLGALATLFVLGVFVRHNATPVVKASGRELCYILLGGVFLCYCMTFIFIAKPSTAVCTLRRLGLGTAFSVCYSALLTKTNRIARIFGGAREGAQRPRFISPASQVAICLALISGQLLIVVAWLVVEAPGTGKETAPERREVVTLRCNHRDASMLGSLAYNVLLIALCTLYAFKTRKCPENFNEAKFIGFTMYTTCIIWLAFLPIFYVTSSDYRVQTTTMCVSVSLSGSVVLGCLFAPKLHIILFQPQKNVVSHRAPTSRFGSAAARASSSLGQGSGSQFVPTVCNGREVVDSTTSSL
T2 sequence (Q14832 whole entry): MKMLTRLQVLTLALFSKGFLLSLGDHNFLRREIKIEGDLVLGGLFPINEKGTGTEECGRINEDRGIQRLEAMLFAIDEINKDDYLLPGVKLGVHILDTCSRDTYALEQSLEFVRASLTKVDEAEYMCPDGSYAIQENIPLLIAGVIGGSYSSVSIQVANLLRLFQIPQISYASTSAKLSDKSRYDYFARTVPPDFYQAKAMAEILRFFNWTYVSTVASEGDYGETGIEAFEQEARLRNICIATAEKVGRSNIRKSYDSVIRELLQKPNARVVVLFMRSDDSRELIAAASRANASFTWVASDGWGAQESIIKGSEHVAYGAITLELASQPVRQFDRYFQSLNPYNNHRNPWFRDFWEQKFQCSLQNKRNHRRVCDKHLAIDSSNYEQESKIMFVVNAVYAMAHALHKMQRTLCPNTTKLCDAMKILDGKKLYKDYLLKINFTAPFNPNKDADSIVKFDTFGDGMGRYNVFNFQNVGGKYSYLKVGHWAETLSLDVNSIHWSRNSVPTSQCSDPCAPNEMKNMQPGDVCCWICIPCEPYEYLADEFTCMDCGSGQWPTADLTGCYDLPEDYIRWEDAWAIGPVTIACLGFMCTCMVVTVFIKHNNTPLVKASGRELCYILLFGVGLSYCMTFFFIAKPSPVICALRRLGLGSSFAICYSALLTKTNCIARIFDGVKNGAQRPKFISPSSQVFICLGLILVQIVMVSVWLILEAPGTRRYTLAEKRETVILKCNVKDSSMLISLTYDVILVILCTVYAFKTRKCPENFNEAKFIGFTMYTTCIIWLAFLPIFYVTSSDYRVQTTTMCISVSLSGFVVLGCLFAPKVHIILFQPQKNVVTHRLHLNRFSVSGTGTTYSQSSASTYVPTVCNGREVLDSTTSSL

For `C[C@@H]1C[C@H]2[C@H](C(=O)O)[C@H]2[C@]1(N)C(=O)O`, the IC50 (usually the concentration that gives 50% inhibition) in assay [1] amounted to 1750 nM. Moreover, the Ki (as a rule, a dissociation constant, usually derived from enzyme kinetics or from competition with a known ligand) in assay [2] was found to be 146 nM.

Consider `C[C@H]1C[C@](N)(C(=O)O)[C@H]2[C@H](C(=O)O)[C@H]21`, for which the Ki in assay [3] and in assay [2] was greater than 100000 nM throughout. The EC50 in assay [1] and in assay [4] was greater than 100000 nM in each case.

As for `C[C@H]1C[C@@](N)(C(=O)O)[C@@H]2[C@@H](C(=O)O)[C@@H]21`, the 50% effective concentration (EC50) (usually the concentration needed to bring the measured effect to its halfway point) came out at 45 nM in assay [1] and 34 nM in assay [4]. For the same molecule, in assay [2], the Ki turned out to be 511 nM.

Regarding `N[C@@]1(C(=O)O)CC[C@H]2[C@H](C(=O)O)[C@H]21`, the Ki in assay [3] came to 74 nM. Moreover, in assay [1], the midpoint of the response, the EC50, lay at 10 nM.

Consider `C[C@@H]1C[C@@](N)(C(=O)O)[C@@H]2[C@@H](C(=O)O)[C@@H]21` (stereo in doubt; 13), for which the figures for the Ki in assay [3] and in assay [2] were 409 nM and 570 nM, respectively. Besides, the EC50 in assay [1] is 397 nM. In assay [4], this molecule yielded an IC50 of 2940 nM.

As for `C[C@@H]1C[C@@](N)(C(=O)O)[C@@H]2[C@@H](C(=O)O)[C@@H]21` (stereo in doubt; (+)-13), the Ki in assay [3] is 165 nM; in assay [2] it was 302 nM. Further, in assay [1], the EC50 was determined as 161 nM. In addition, the IC50 in assay [4] was 1050 nM.
